Assay results reported in patent publication US20160002204A1 (Board of Regents, The University of Texas System, priority 2014, published 2016).

What was measured:
[1] = molecular target: T1, GLS1 (purified recombinant human GAC) (Homo sapiens, UniProt O94925); assay: GLS1 enzymatic activity assay (dual-coupled, Amplex UltraRed/resorufin); format: biochemical
T1 sequence (O94925 55-598 isoform O94925-3 limits assumed): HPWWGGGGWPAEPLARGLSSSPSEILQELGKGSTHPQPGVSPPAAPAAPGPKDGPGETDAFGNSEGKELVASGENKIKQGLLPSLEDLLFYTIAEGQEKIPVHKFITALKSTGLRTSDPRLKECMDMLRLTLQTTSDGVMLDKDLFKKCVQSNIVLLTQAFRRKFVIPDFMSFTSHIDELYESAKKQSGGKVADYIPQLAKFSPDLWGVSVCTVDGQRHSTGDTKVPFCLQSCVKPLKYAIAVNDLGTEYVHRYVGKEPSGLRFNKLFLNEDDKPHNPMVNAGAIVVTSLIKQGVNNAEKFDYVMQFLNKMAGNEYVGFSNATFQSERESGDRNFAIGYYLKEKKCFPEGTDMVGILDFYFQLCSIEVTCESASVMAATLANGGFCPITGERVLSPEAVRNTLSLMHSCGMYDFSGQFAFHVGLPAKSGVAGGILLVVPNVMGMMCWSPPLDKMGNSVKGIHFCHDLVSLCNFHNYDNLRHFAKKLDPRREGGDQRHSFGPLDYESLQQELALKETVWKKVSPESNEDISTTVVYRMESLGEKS
Procedure: GLS1 Enzymatic Activity Assay
The inhibition of purified recombinant human GAC by varying concentrations of inhibitors is assessed via a dual-coupled enzymatic assay. The glutamate produced by the glutaminase reaction is used by glutamate oxidase to produce α-ketoglutarate, ammonia, and hydrogen peroxide, with this hydrogen peroxide subsequently being used by horseradish peroxidase to produce resorufin in the presence of Amplex UltraRed. The assay buffer consisted of 50 mM Hepes (pH 7.4), 0.25 mM EDTA and 0.1 mM Triton X-100. GAC was incubated with potassium phosphate (10 minutes at room temperature) prior to incubation with inhibitor (10 minutes at room temperature). The final reaction conditions were as follows: 2 nM GAC, 50 mM potassium phosphate, 100 mU/mL glutamate oxidase (Sigma), 1 mM glutamine (Sigma), 100 mU/mL horseradish peroxidase (Sigma), 75 μM Amplex UltraRed (Life Technologies), and 1% (v/v) DMSO. The production of resorufin was monitored on a Perkin Elmer Envision plate reader (excitation 530 nm, emission 590 nm) either in a kinetics or endpoint mode (at 20 minutes). IC50 values were calculated using a four-parameter logistic curve fit.

A549 cells = assay: A549 proliferation (viability) assay, Cell Titer Fluor, 72 hours; format: cell-based; settings: Homo sapiens
Procedure: A549 cells were routinely maintained in RPMI 1640 media (Gibco catalog number 11875-093) supplemented with 10% dialyzed fetal bovine serum using a humidified incubator (37° C., 5% CO2 and ambient O2). In preparation for the viability assay, cells were inoculated into 384-well black CulturPlates (Perkin Elmer) at a density of 1000 cells/well in a volume of 40 uL. Following a 24-hour incubation at 37° C., 5% CO2 and ambient O2, cells were treated with compound (10 uL) in a final DMSO concentration of 0.5% (v/v). The microplates were then incubated for 72 hours (37° C., 5% CO2 and ambient O2). Cell Titer Fluor (Promega) was subsequently added (10 uL of 6× reagent) and mixed for 15 minutes at room temperature. The plates were then incubated for 30 minutes (37° C., 5% CO2 and ambient O2) and fluorescence was subsequently read on the Perkin Elmer Envision plate reader. EC50 values were calculated using a four-parameter logistic curve fit.

SMILES | IC50 [1] [nM] | EC50 (A549 cells) [nM]
O=C(Cc1cccc(OC(F)(F)F)c1)Nc1ccc(CCCCn2ccc(NC(=O)NCc3ccccc3)nc2=O)nn1 [Example 23, N-(6-(4-(4-(3-benzylureido)-2-oxopyrimidin-1(2H)-yl)butyl)pyridazin-3-yl)-2-(3-(trifluoromethoxy)phenyl)acetamide] | < 100 | 500 to 5000
O=C(Cc1cccc(OC(F)(F)F)c1)Nc1ccc(CCCCn2ccc(NC(=O)OCc3ccccc3)nc2=O)nn1 [Example 24, Benzyl(2-oxo-1-(4-(6-(2-(3-(trifluoromethoxy)phenyl)acetamido)pyridazin-3-yl)butyl)-1,2-dihydropyrimidin-4-yl)carbamate] | < 100 | < 100
O=C(Nc1ccn(CCCCc2nnc(C(=O)NCc3cccc(OC(F)(F)F)c3)s2)c(=O)n1)OCc1ccccc1 [Example 28, Benzyl 2-oxo-1-(4-(5-(3-(trifluoromethoxy)benzylcarbamoyl)-1,3,4-thiadiazol-2-yl)butyl)-1,2-dihydropyrimidin-4-ylcarbamate] | < 100 | 100 to 500
O=C(Cc1ccccc1)Nc1nnc(CCCCn2cc3cc(Cc4ccccc4)[nH]c3nc2=O)s1 [Example 29, N-(5-(4-(6-benzyl-2-oxo-2,7-dihydro-3H-pyrrolo[2,3-d]pyrimidin-3-yl)butyl)-1,3,4-thiadiazol-2-yl)-7-phenylacetamide] | < 100 | > 5000
O=C(Cc1ccccc1)Nc1ccn(CCCCc2nnc(NC(=O)Cc3ccccc3)s2)c(=O)c1 [Example 31, N-(2-oxo-1-{4-[5-(2-phenylacetamido)-1,3,4-thiadiazol-2-yl]butyl}-1,2-dihydropyridin-4-yl)-2-phenylacetamide] | < 100 | 500 to 5000
CNC(=O)c1cn(CCCCn2ccc(NC(=O)Cc3ccccc3)cc2=O)nn1 [Example 32, N-methyl-1-{4-[2-oxo-4-(2-phenylacetamido)-1,2-dihydropyridin-1-yl]butyl}-1H-1,2,3-triazole-4-carboxamide] | 500 to 5000 | > 5000
O=C(Cc1ccccc1)Nc1ccn(CCCCn2cc(C(=O)NCc3cccc(OC(F)(F)F)c3)nn2)c(=O)c1 [Example 33, 1-{4-[2-oxo-4-(2-phenylacetamido)-1,2-dihydropyridin-1-yl]butyl}-N-{[3-(trifluoromethoxy)phenyl]methyl}-1H-1,2,3-triazole-4-carboxamide] | < 100 | 100 to 500
O=C(Cc1ccccc1)Nc1ccn(CCCCn2cc(C(=O)NCc3ccccn3)nn2)c(=O)c1 [Example 34, 1-{4-[2-oxo-4-(2-phenylacetamido)-1,2-dihydropyridin-1-yl]butyl}-N-(pyridin-2-ylmethyl)-1H-1,2,3-triazole-4-carboxamide] | 100 to 500 | > 5000
CC(C)CNC(=O)c1cn(CCCCn2ccc(NC(=O)Cc3ccccc3)cc2=O)nn1 [Example 35, N-(2-methylpropyl)-1-{4-[2-oxo-4-(2-phenylacetamido)-1,2-dihydropyridin-1-yl]butyl}-1H-1,2,3-triazole-4-carboxamide] | 500 to 5000 | > 5000
O=C(Cc1ccccc1)Nc1ccn(CCCCn2cc(C(=O)NCC3CCCCC3)nn2)c(=O)c1 [Example 36, N-(cyclohexylmethyl)-1-{4-[2-oxo-4-(2-phenylacetamido)-1,2-dihydropyridin-1-yl]butyl}-1H-1,2,3-triazole-4-carboxamide] | 100 to 500 | 500 to 5000
CC(C)CC(=O)Nc1ccn(CCCCn2cc(C(=O)NCc3cccnc3)nn2)c(=O)c1 [Example 37, 1-{4-[4-(3-methylbutanamido)-2-oxo-1,2-dihydropyridin-1-yl]butyl}-N-(pyridin-3-ylmethyl)-1H-1,2,3-triazole-4-carboxamide] | 500 to 5000 | > 5000
CC(C)CC(=O)Nc1ccn(CCCCn2cc(C(=O)NCc3ccccn3)nn2)c(=O)c1 [Example 38, 1-{4-[4-(3-methylbutanamido)-2-oxo-1,2-dihydropyridin-1-yl]butyl}-N-(pyridin-2-ylmethyl)-1H-1,2,3-triazole-4-carboxamide] | 500 to 5000 | > 5000
CC(C)CC(=O)Nc1ccn(CCCCn2cc(C(=O)NCC3CCCCC3)nn2)c(=O)c1 [Example 39, N-(cyclohexylmethyl)-1-{4-[4-(3-methylbutanamido)-2-oxo-1,2-dihydropyridin-1-yl]butyl}-1H-1,2,3-triazole-4-carboxamide] | 100 to 500 | 500 to 5000
CNC(=O)c1cn(CCCCn2ccc(NC(=O)Cc3cccc(OC(F)(F)F)c3)cc2=O)nn1 [Example 40, N-methyl-1-[4-(2-oxo-4-{2-[3-(trifluoromethoxy)phenyl]acetamido}-1,2-dihydropyridin-1-yl)butyl]-1H-1,2,3-triazole-4-carboxamide] | 100 to 500 | 500 to 5000

The remaining lines, values ahead:

IC50 [1] [nM] | EC50 (A549 cells) [nM] | SMILES
< 100 | 500 to 5000 | O=C(Cc1cccc(OC(F)(F)F)c1)Nc1ccn(CCCCn2cc(C(=O)NCC3CCCCC3)nn2)c(=O)c1 [Example 41, N-(cyclohexylmethyl)-1-[4-(2-oxo-4-{2-[3-(trifluoro-methoxy)phenyl]acetamido}-1,2-dihydropyridin-1-yl)butyl]-1H-1,2,3-triazole-4-carboxamide]
< 100 | 100 to 500 | O=C(Nc1ccn(CCCCn2cc(C(=O)NCc3cccc(OC(F)(F)F)c3)nn2)c(=O)c1)OCc1ccccc1 [Example 42, benzyl N-(2-oxo-1-{4-[4-({[3-(trifluoromethoxy)phenyl]methyl}carbamoyl)-1H-1,2,3-triazol-1-yl]butyl}-1,2-dihydropyridin-4-yl)carbamate]
< 100 | 100 to 500 | CC(C)OC(=O)Nc1ccn(CCCCn2cc(C(=O)NCc3cccc(OC(F)(F)F)c3)nn2)c(=O)c1 [Example 43, propan-2-yl N-(2-oxo-1-{4-[4-({[3-(trifluoromethoxy)phenyl]methyl}carbamoyl)-1H-1,2,3-triazol-1-yl]butyl}-1,2-dihydropyridin-4-yl)carbamate]
< 100 | < 100 | O=C(Nc1ccn(CCCCn2cc(C(=O)NCc3cccc(OC(F)(F)F)c3)nn2)c(=O)c1)OC1CCCCC1 [Example 44, cyclohexyl N-(2-oxo-1-{4-[4-({[3-(trifluoromethoxy)phenyl]methyl}carbamoyl)-1H-1,2,3-triazol-1-yl]butyl}-1,2-dihydropyridin-4-yl)carbamate]
< 100 | < 100 | O=C(CC1CCCCC1)Nc1ccn(CCCCn2cc(C(=O)NCc3cccc(OC(F)(F)F)c3)nn2)c(=O)c1 [Example 45, 1-{4-[4-(2-cyclohexylacetamido)-2-oxo-1,2-dihydropyridin-1-yl]butyl}-N-{[3-(trifluoromethoxy)phenyl]methyl}-1H-1,2,3-triazole-4-carboxamide]
100 to 500 | > 5000 | Cn1cc(CC(=O)Nc2ccn(CCCCn3cc(C(=O)NCc4cccc(OC(F)(F)F)c4)nn3)c(=O)c2)cn1 [Example 46, 1-(4-{4-[2-(1-methyl-1H-pyrazol-4-yl)acetamido]-2-oxo-1,2-dihydropyridin-1-yl}butyl)-N-{[3-(trifluoromethoxy)phenyl]methyl}-1H-1,2,3-triazole-4-carboxamide]
< 100 | 500 to 5000 | O=C(CC1CCOC1)Nc1ccn(CCCCn2cc(C(=O)NCc3cccc(OC(F)(F)F)c3)nn2)c(=O)c1 (stereo not drawn) [Example 47, 1-(4-{2-oxo-4-[2-(oxolan-3-yl)acetamido]-1,2-dihydropyridin-1-yl}butyl)-N-{[3-(trifluoromethoxy)phenyl]methyl}-1H-1,2,3-triazole-4-carboxamide]
